The text below walks through data of patent US5329012A, “Bis(acyloxmethyl)imidazole compounds” (The Research Foundation of State University of New York, priority 1987, dated 1994).

In series [1] the test system is lymphocytic leukemia P-388. The experiment in a line: P-388 lymphocytic leukemia test in mice (NCI Protocol 1.200). It counts as in vivo, CDF1 female mice. The note with it: daily for 5 days. The protocol: Various bis(acyloxymethyl)imidazole derivatives prepared in accord with Examples I-XVIII and designated Samples A-J, were tested for anti-tumor activity in vivo using the lymphocytic leukemia P-388 test procedure in mice with Samples A and B representing controls. The test system was that employed by the National Cancer Institute (NCI) for the preliminary screening of anti-tumor agents, according to Protocol 1.200 (Cancer Chemo. Reports Part 3, Vol. 3, No. 2, page 9; 1972). In the study ascitic fluid containing 6×10^6 cells was implanted in the peritoneal cavity of CDF1 female mice. Each imidazole was given in a single injection, at four to six different dose levels (5-6 mice/dose level) daily for five (5) days beginning 24 hours after tumor innoculation. The control animals received saline. Test criteria was in accord with NCI protocol as follows: toxicity day evaluations were carried out on day 5 (number of survivors/number of animals tested); % T/C data was calculated through mean survival time [% T/C=(MST treated/MST control)x100, where MST=mean survival time]; BWD refers to the body weight difference (grams) of test animals compared to control animals; KE refers to the log of the tumor cell population at the end of treatment relative to tumor cell population before treatment.
Table I sets out the identification of the compounds corresponding to the samples used in this and further Examples. Table II sets out the results of the P-388 tests.

Series [2] relates to MX-1 (mammary) human tumor xenograft. Nature of the series: MX-1 human mammary tumor xenograft (subrenal capsule), tumor weight evaluation. Type of series: in vivo, human tumor in female athymic (nude) mice. Particulars: optimal dosage 270 mg/kg, single dose; hydrochloride salt. The protocol: (§1) Tumor cells were inoculated ip(intraperitonal) into female, athymic, mice, being either MX-1 (mammary) or LOX (amelanotic melanoma) human tumor xenograph models. The human xenograft tumors were formed by heterotransplantation of surgically removed human tumors into the subrenal capsule of the nude mice. […] The hydrochloride salts of the compounds, designated H, K, and L, and the free base of H, as identified on Table I were administered to the viable human xenograft tumors by a single dose subcutaneous renal cavity (MX-1) injection or interperitonal (LOX) injection to the nude mice test animal in a suspension of 0.9% aqueous sodium chloride solution with "tween-80" and distilled water. The tested compounds were tested against a known cancer tumor inhibiting compound (control) 2,3-dihydro-5-(3'-4'-dichloropheny1)-6,7-bis(n-propylcarbanoxymethylcarbonate)-1H-pyrollizine.
(§2) In both the MX-1 and LOX model, results were expressed as a percentage of the test animal evaluation (T) compared to that for the control (C) and was reported as %T/C. These values are based on all mice in the test.
In the MX-1 model %T/C was evaluated from an estimate of tumor weight in untreated mice as compared to an estimate of tumor weight in treated mice. In such tumor weight evaluation, a low %T/C indicates effective treatment as the tumors of the treated mice are smaller than tumors of the untreated control mice.
(§3) The data presented comprises findings at optimal dosages of particularly effective compounds of the invention as compared to the control.
(In xenograft studies the graft and the host belong to different species.)

Series [3] relates to LOX (amelanotic melanoma) human tumor xenograft. The experiment in a line: LOX human amelanotic melanoma xenograft, survival evaluation. Particulars: optimal dosage 135 mg/kg, single dose; hydrochloride salt. It counts as in vivo, human tumor in female athymic (nude) mice. The protocol:
as §1, §2
In the LOX model %T/C was evaluated by survival, meaning that the mean survival time of mice of the control group surviving (C) is compared to the mean survival time of mice who survived the test with treatment (T).
as §3

[4] abbreviates: Mus musculus, P388, 120 h, 25 mg/kg/inj, read-out: % T/C (mean survival time).
Where [5] appears, read: Mus musculus, P388, 120 h, 50 mg/kg/inj, read-out: % T/C (mean survival time).
The mark [6] stands for this setting: Mus musculus, P388, 120 h, 100 mg/kg/inj, read-out: % T/C (mean survival time).
[7] abbreviates: Mus musculus, P388, 120 h, 200 mg/kg/inj, read-out: % T/C (mean survival time).
[8] abbreviates: Mus musculus, P388, 120 h, 400 mg/kg/inj, read-out: % T/C (mean survival time).

On to `CSc1nc(COC(=O)NC(C)C)c(COC(=O)NC(C)C)n1C` [I, 1-methyl-2-methylthio-4,5-bis-[N-(2-propyl)carbonyloxymethyl)imidazole], for which the “BWD (body weight difference vs control)” value in series [1] (12.5 mg/kg/inj) is listed as 2.6 g; in series [1] (25 mg/kg/inj), 0.4 g; in series [1] (50 mg/kg/inj), 0.0 g; in series [1] (100 mg/kg/inj), -1.2 g; in series [1] (200 mg/kg/inj), -1.8 g; in series [1] (400 mg/kg/inj), -3.4 g. For the same molecule, the “KE (log tumor cell population end vs before treatment)” value in series [1] (12.5 mg/kg/inj) is reported as -1.40; in series [1] (25 mg/kg/inj), -0.91; in series [1] (50 mg/kg/inj) it was -0.56; in series [1] (100 mg/kg/inj), 1.89; in series [1] (200 mg/kg/inj), 4.21; in series [1] (400 mg/kg/inj) it was “toxic”. Moreover, the response vs control in vivo at 12.5 mg/kg in series [1] (Mus musculus, P388, 120 h, 12.5 mg/kg/inj, read-out: % T/C (mean survival time)) was determined as 113%. Further, in series [1] (setting [4]), the response vs control in vivo at 25 mg/kg was 125%. The response vs control in vivo at 50 mg/kg in series [1] (setting [5]) stood at 130%. Also, the response vs control in vivo at 100 mg/kg in series [1] (setting [6]) stood at 163%. Also, the response vs control in vivo at 200 mg/kg in series [1] (setting [7]) turned out to be 184%. The response vs control in vivo at 400 mg/kg in series [1] (setting [8]) was 70%.
Turning to `COc1nc(COC(=O)NC(C)C)c(COC(=O)NC(C)C)n1C` [J, 1-methyl-2-methoxy-4,5-bis-[N-(2-propyl)carbonyloxymethyl)imidazole], the “BWD (body weight difference vs control)” value in series [1] (25 mg/kg/inj) is recorded as -0.1 g; in series [1] (50 mg/kg/inj), -1.0 g; in series [1] (100 mg/kg/inj), -2.1 g; in series [1] (200 mg/kg/inj), -2.6 g; in series [1] (400 mg/kg/inj), -4.2 g. In addition, the “KE (log tumor cell population end vs before treatment)” value in series [1] (25 mg/kg/inj) is recorded as -0.60; in series [1] (50 mg/kg/inj), 0.54; in series [1] (100 mg/kg/inj) it was 1.87; in series [1] (200 mg/kg/inj), 3.41; in series [1] (400 mg/kg/inj) it was 3.88. For the same molecule, the response vs control in vivo at 25 mg/kg in series [1] (setting [4]) came to 130%. Also, the response vs control in vivo at 50 mg/kg in series [1] (setting [5]) worked out at 147%. The response vs control in vivo at 100 mg/kg in series [1] (setting [6]) is 166%. In addition, the response vs control in vivo at 200 mg/kg in series [1] (setting [7]) is 189%. The response vs control in vivo at 400 mg/kg in series [1] (setting [8]) was found to be 196%.
As for `CCCCCCn1c(SC)nc(COC(=O)NC)c1COC(=O)NC` [L, 1-n-hexyl-2-methylthio-4,5-bis-(N-methylcarbonyloxymethyl)imidazole], in series [2], the “MX-1 Cures” value is on record as 6/6. Further, in series [3], the “LOX % T/C Survl.” value stood at 208% and the “LOX Cures” value is recorded as 1/6.
